# Legend:
# [1] = tested on: patients with moderate to severe atopic dermatitis; assay: Phase 2 atopic dermatitis study: adverse events and tolerability; type: in vivo, human
# healthy adult subjects = conditions: single doses up to 5 mg, repeated doses up to 4 mg QD; cited from earlier work
# [2] = tested on: patients with moderate to severe atopic dermatitis; assay: Phase 2 randomized, double-blind, placebo-controlled study: efficacy (EASI, vIGA, pruritus NRS, patient-reported outcomes); type: in vivo, human; conditions: for reduction in EASI from baseline to week 12: 12 weeks (n=47); for delta versus placebo in vIGA 0 or 1 response at week 12: p<0.05
# Procedure: A Phase 2, multicenter, randomized, double-blind, placebo-controlled study was conducted to assess the safety and efficacy of etrasimod in patients with moderate to severe atopic dermatitis. The primary endpoint measured was percent change in Eczema Area and Severity Index (EAST) from baseline to week 12, followed by a 4-week follow-up observation period. Secondary endpoints include the proportion of participants achieving EASI-75, proportion of participants with a validated Investigator Global Assessment (vIGA) 0 to 1, and percent change in peak pruritis. The trial enrolled approximately 140 patients and was conducted in study sites across the United States, Canada and Australia. An open-label extension of the trial is ongoing. The study included multiple periods: (i) up to a 4-week screening period (to determine subject eligibility); (ii) a 12-week double-blind treatment period with a 4-week safety follow-up period; and (iii) a 52-week open-label extension period followed by a 4-week safety follow-up period. Subjects with chronic AD for at least one year (as defined by Hanifin and Rajka criteria (Hanifin 1980)) despite optimized skin care (e.g., use of emollients, avoidance of irritants) whose disease is not adequately controlled with topical therapies, or for whom those therapies are not advisable, were equally randomized (1:1:1 ratio) to receive etrasimod (1 or 2 mg) or placebo. Etrasimod 1 or 2 mg tablets or matching placebo tablets were taken orally once daily during the double-blind treatment period. Etrasimod 2 mg tablets are taken orally once daily during the open-label extension period. There is no reference therapy (no placebo) during the open-label extension period. Inclusion Criteria: Subjects must meet ALL of the following inclusion criteria to be eligible for enrollment into the study. • 1. Men or women between ≥18 and ≤70 years of age at the time of informed consent. • 2. Chronic AD, defined by Hanifin and Rajka criteria (Hanifin 1980), that has been present for at least one year prior to the screening visit. • 3. Eczema Area and Severity Index (EAST)≥12 at the screening visit and ≥16 at the baseline visit. • 4. vIGA score≥3 (on the 0 to 4 vIGA scale, in which 3=moderate and 4=severe) involvement at the screening and baseline visits. • 5. Body surface area (BSA)≥10% of AD involvement at the screening and baseline visits. • 6. Recent history (within 6 months prior to the screening visit) of inadequate response to treatment with topical medications, or when topical treatments are otherwise medically inadvisable (e.g., because of important side effects or safety risks), which can be documented by medical records or by the history provided to the investigator by the subject despite optimized skin care (.e., avoidance of irritants, use of emollients). • 7. Willing to apply a dose of topical emollient/moisturizer at least once daily for ≥1 week prior to the baseline visit and willing to continue daily application over the course of the study without change (i.e., type, frequency, application). • 8. Willing and able to comply with all clinic visits and study-related procedures and understand and complete study-related questionnaires. • 9. Provide signed informed consent prior to conducting any procedures. Efficacy was assessed by changes in AD severity using EASI, vIGA, SCORing Atopic Dermatitis (SCORAD), and BSA. Symptoms of itch were assessed using the pruritus numeric rating scale (NRS). Patient-reported outcomes will also be assessed using the Dermatology Life Quality Index (DLQI), Patient Oriented Eczema Measure (POEM), and Patient Global Assessment (PGA).
# lymphocyte count = assay: Phase 2 atopic dermatitis study: absolute/peripheral lymphocyte count; type: in vivo, human
# From the text: (§1) The study included multiple periods: (i) up to a 4-week screening period (to determine subject eligibility); (ii) a 12-week double-blind treatment period with a 4-week safety follow-up period; and (iii) a 52-week open-label extension period followed by a 4-week safety follow-up period. Subjects with chronic AD for at least one year (as defined by Hanifin and Rajka criteria (Hanifin 1980)) despite optimized skin care (e.g., use of emollients, avoidance of irritants) whose disease is not adequately controlled with topical therapies, or for whom those therapies are not advisable, were equally randomized (1:1:1 ratio) to receive etrasimod (1 or 2 mg) or placebo. Etrasimod 1 or 2 mg tablets or matching placebo tablets were taken orally once daily during the double-blind treatment period. Etrasimod 2 mg tablets are taken orally once daily during the open-label extension period. There is no reference therapy (no placebo) during the open-label extension period.
# During the double-blind treatment period, etrasimod plasma concentrations and a complete blood count (CBC) including lymphocyte count were assessed on day 1 and before dosing at subsequent study visits. Study visits occurred at baseline, week 1, week 2, week 4, week 6, week 8, week 12, at the end of treatment, and at the week 16 follow-up visit. The absolute lymphocyte count (ALC) was included as part of the assessment.
# UC patients = conditions: 2 mg QD for 12 weeks; cited from earlier work
# heart rate = assay: Phase 2 atopic dermatitis study: heart rate effects after first dose; type: in vivo, human; conditions: for placebo corrected maximal mean heart rate decrease from baseline: 2 hours after first dose
# From the text: as §1
# There was a decrease of 1.5 bpm in the 1 mg group and a decrease of 6.7 bpm in the 2 mg group. […] After the first dose, the heart rate differences across the 3 groups came together by week 1 and were similar from weeks 2-12. One participant in the 2 mg etrasimod group had transient 2nd degree AVB Type 1 which was self-limited, and asymptomatic. The participant went on to further dosing without any cardiac changes or symptoms.
smiles,measurement,setting,value
"O=C(O)C[C@H]1CCc2c1[nH]c1ccc(OCc3ccc(C4CCCC4)c(C(F)(F)F)c3)cc21 [etrasimod, (R)-2-(7-(4-cyclopentyl-3-(trifluoromethyl)benzyloxy)-1,2,3,4-tetrahydrocyclopenta[b]indol-3-yl)acetic acid]",tolerability,"[1]; 1 mg and 2 mg, 12-week double-blind period",well tolerated
same,cases of dyspnea,[1]; 2 mg treatment group,one case
same,adverse events related to heart rate,[1]; double-blind treatment period,no adverse events related to heart rate
same,cases of macular edema,[1]; double-blind treatment period,no cases
same,"conjunctivitis, acne, venous thromboembolic events, opportunistic or serious infections",[1]; double-blind treatment period,no reports
same,safety and tolerability in clinical trials,healthy adult subjects,safe and well-tolerated
same,patients achieving EASI-75,"[2]; 1 mg once daily, week 12",27.7%
same,patients achieving vIGA of 0 or 1 and a reduction from baseline of >=2 points at week 12,"[2]; 1 mg once daily, week 12",14.9%
same,reduction in EASI from baseline to week 12,[2]; 1 mg orally once daily,58.7%
same,proportion of patients with decrease in pruritus >=4 points at week 12,"[2]; 1 mg, week 12, p=0.61 vs placebo",32.5%
same,improvement in EASI from baseline to week 4,"[2]; 2 mg dose group, week 4",statistically significant improvement
same,improvement in pruritis at week 4,"[2]; 2 mg dose group, week 4",statistically significant improvement
same,proportion of patients who achieved EASI-75 at week 4,"[2]; 2 mg dose group, week 4",statistically significant improvement
same,delta versus placebo in vIGA 0 or 1 response at week 12,[2]; 2 mg group vs placebo,16.8%
same,percent change in EASI over time versus placebo,"[2]; 2 mg group without interruptions, weeks 4 to 12",significant at 4 weeks
same,patients achieving EASI-75 at week 12,[2]; 2 mg group without study interruptions,42.1%
same,patients achieving vIGA of 0 or 1 and reduction from baseline >=2 points at week 12,[2]; 2 mg group without study interruptions (38 participants),36.8%
same,delta versus placebo in vIGA 0 or 1 response at week 12,[2]; 2 mg group without study interruptions vs placebo,23.8%
same,patients achieving EASI-75,"[2]; 2 mg once daily, week 12",38.3%
same,patients achieving vIGA of 0 or 1 and a reduction from baseline of >=2 points at week 12,"[2]; 2 mg once daily, week 12",29.8%
same,reduction in EASI from baseline to week 12,[2]; 2 mg orally once daily,57.2%
same,treatment response after restart of treatment,"[2]; 2 mg patients with dose interruption, after restart",recaptured
same,EASI change from baseline in patients who ceased then reinitiated treatment,"[2]; 2 mg patients with dose interruption, to week 12",improved rapidly after resumption
same,patient-reported and clinician-assessed outcomes versus placebo,"[2]; 2 mg, over 12 weeks",improved patient-reported outcomes and clinician-assessed outcomes versus placebo
same,"proportions of patients achieving vIGA score of 0 or 1, DLQI and POEM versus placebo","[2]; 2 mg, week 12",significantly greater proportions
same,proportion of patients with decrease in pruritus >=4 points at week 12,"[2]; 2 mg, week 12, p=0.15 vs placebo",42.1%
same,pruritis NRC changes over time versus placebo,[2]; etrasimod group without interruptions,statistically significant from weeks 2-8
same,patients with ALC measurement of Grade 3 (between 0.2x10e9 and 0.5x10e9 cells/L),"lymphocyte count; 2 mg group, between weeks 4 and 8",nine
same,maximal reduction in the peripheral lymphocyte count,"lymphocyte count; 2 mg group, week 2",43.6%
same,lymphocyte count after treatment withdrawal,"lymphocyte count; 2 mg patients with dose interruption, between weeks 4 and 8",rapid rebound in lymphocyte count
same,endoscopic and symptomatic improvements versus placebo,UC patients,clinically meaningful and statistically significant endoscopic and symptomatic improvements
same,blood pressure changes or symptoms associated with heart rate changes,"heart rate; 1 mg and 2 mg groups, after first dose",not associated with any blood pressure changes or symptoms
same,placebo corrected maximal mean heart rate decrease from baseline,heart rate; 1 mg group,1.5 bpm
same,placebo corrected maximal mean heart rate decrease from baseline,heart rate; 2 mg group,6.7 bpm
same,participants with transient 2nd degree AVB Type 1,"heart rate; 2 mg group, self-limited, asymptomatic",One
